Experimental data published in ChEMBL document CHEMBL5608246, “Membrane-Targeting Amphiphilic Honokiol Derivatives Containing an Oxazole Moiety as Potential Antibacterials against Methicillin-Resistant Staphylococcus aureus” (J Med Chem, 2024).
Activity calls are given as the source filed them. The rule behind the calls is not given here.

Tests used:
Staphylococcus aureus [1] = assay: Inhibition of enzyme activity in methicillin resistant Staphylococcus aureus N315 at 4 ug/ml incubated for 4 hrs by RNA-sequencing analysis; format: functional, organism-based; conditions: dose 4.0 µg/ml
Staphylococcus aureus [2] = assay: Antibacterial activity against methicillin resistant Staphylococcus aureus M13 incubated for 16 to 18 hrs by broth dilution method; format: functional; conditions: time 16-18 hrs
Staphylococcus aureus [3] = assay: Antibacterial activity against methicillin resistant Staphylococcus aureus 20 incubated for 16 to 18 hrs in presence of 32 ug/ml phosphatidylglycerol by checkerboard broth dilution method; format: functional; conditions: time 16-18 hrs
Cell membrane [4] = assay: Induction of membrane disruption in methicillin resistant Staphylococcus aureus 20 assessed as viable cells with intact membrane at 8 ug/ml incubated for 2 hrs by SYTO9/PI staining based flow cytometry analysis (reference value: 98.7%); format: cell membranes; conditions: dose 8.0 µg/ml
[5] = Toxicity in Kunming mouse assessed as skin swelling at 40 to 80 mg/kg, sc measured after 24 hrs; format: organism-based; conditions: in vivo, dose 40-80 mg/kg
Staphylococcus aureus [6] = assay: Inhibition of arginine synthesis in methicillin resistant Staphylococcus aureus N315 at 4 ug/ml incubated for 4 hrs by RNA-sequencing analysis; format: functional, organism-based; conditions: dose 4.0 µg/ml
[7] = Cytotoxicity against human L02 cells assessed as survival rate at 16 ug/ml incubated for 24 hrs by CCK8 assay; format: toxicity, cell-based; conditions: at 16 µg/mL, read-out: Survival
Staphylococcus aureus [8] = assay: Inhibition of proline synthesis in methicillin resistant Staphylococcus aureus N315 at 4 ug/ml incubated for 4 hrs by RNA-sequencing analysis; format: functional, organism-based; conditions: dose 4.0 µg/ml
Cell membrane [9] = assay: Induction of membrane disruption in methicillin resistant Staphylococcus aureus 20 assessed as increase in intracellular ROS level incubated for 1 hr by DCFH-DA staining based analysis; format: cell membranes; conditions: dose 2-128 µg/ml
Staphylococcus aureus [10] = assay: Antibacterial activity against methicillin resistant Staphylococcus aureus 20 infected in Kunming mouse skin abscess model assessed as reduction in inflammatory cell infiltration in dermal layer at 10 mg/kg, sc measured after 2 hrs; format: functional, organism-based
Staphylococcus aureus [11] = assay: Disruption of redox process in methicillin resistant Staphylococcus aureus N315 at 4 ug/ml incubated for 4 hrs by RNA-sequencing analysis; format: functional, organism-based; conditions: dose 4.0 µg/ml
Staphylococcus aureus [12] = assay: Antibacterial activity against methicillin resistant Staphylococcus aureus 20 infected in Kunming mouse skin abscess model assessed as appearance of smooth back skin at 10 mg/kg, sc measured after 2 hrs; format: functional, organism-based
Cell membrane [13] = assay: Induction of membrane permeability in methicillin resistant Staphylococcus aureus 20 at 16 to 64 ug/ml measured at 2 mins interval over 20 mins by SYTOX green staining based assay; conditions: dose 16-64 µg/ml
Staphylococcus aureus [14] = assay: Antibacterial activity against methicillin resistant Staphylococcus aureus N315 incubated for 16 to 18 hrs by broth dilution method; format: functional; conditions: time 16-18 hrs
[15] = Toxicity in Kunming mouse assessed as spleen abnormalities at 10 mg/kg, sc measured after 24 hrs; format: organism-based; conditions: in vivo
Staphylococcus aureus [16] = assay: Downregulation of sasA gene expression in methicillin resistant Staphylococcus aureus N315 at 4 ug/ml incubated for 4 hrs by RNA-sequencing analysis; format: functional; conditions: dose 4.0 µg/ml
Cell membrane [17] = assay: Induction of membrane disruption in methicillin resistant Staphylococcus aureus 20 assessed as viable cells with intact membrane at 32 ug/ml incubated for 2 hrs by SYTO9/PI staining based flow cytometry analysis (reference value: 98.7%); format: cell membranes; conditions: dose 32.0 µg/ml
L02 = assay: Cytotoxicity against human L02 cells assessed as reduction in cell viability incubated for 24 hrs by CCK8 assay; format: toxicity, cell-based; conditions: l02, 24 h
Cell membrane [18] = assay: Induction of membrane permeability in methicillin resistant Staphylococcus aureus 20 assessed as broken cell membrane by measuring increased fluorescence intensity at 32 ug/ml measured at 2 mins interval over 20 mins by SYTOX green staining based assay; format: cell membranes; conditions: dose 32.0 µg/ml
Staphylococcus aureus [19] = assay: Antibacterial activity against Staphylococcus aureus ATCC 29213 incubated for 16 to 18 hrs by broth dilution method; format: functional; conditions: time 16-18 hrs
Staphylococcus aureus [20] = assay: Antibacterial activity against Staphylococcus aureus ATCC 29213 after 20 passages incubated for 16 to 18 hrs; format: functional; conditions: time 16-18 hrs
[21] = Hemolytic activity in sheep RBC incubated for 1 hr; format: toxicity, cell-based, Ovis aries, Erythrocyte; conditions: sheep red blood cells (erythrocytes)
[22] = Toxicity in Kunming mouse skin abscess model infected with methicillin resistant Staphylococcus aureus assessed as liver damage at 5 to 10 mg/kg, sc measured after 2 hrs by H and E staining based assay; format: organism-based; conditions: in vivo, dose 5-10 mg/kg
Staphylococcus aureus [23] = assay: Antibacterial activity against methicillin resistant Staphylococcus aureus 20 infected in Kunming mouse skin abscess model assessed as reduction in bacterial load at 10 mg/kg, sc measured after 2 hrs; format: functional; set-up: scale not given: the % may be the effect or the level left
Staphylococcus aureus [24] = assay: Antibacterial activity against methicillin resistant Staphylococcus aureus M20 incubated for 16 to 18 hrs by broth dilution method; format: functional; conditions: time 16-18 hrs
[25] = Toxicity in Kunming mouse assessed as change in red blood cell counts at 20 mg/kg, sc measured after 24 hrs; format: organism-based; conditions: in vivo
Cell membrane [26] = assay: Induction of membrane disruption in methicillin resistant Staphylococcus aureus 20 assessed as DNA leakage incubated for 4 hrs by microspectrophotometer analysis; format: cell membranes; conditions: dose 2-16 µg/ml
Staphylococcus aureus [27] = assay: Antibacterial activity against methicillin resistant Staphylococcus aureus 20 infected in Kunming mouse skin abscess model assessed as reduction in severity of skin abscess at 5 mg/kg, sc measured after 2 hrs; format: functional, organism-based
[28] = Toxicity in Kunming mouse assessed as change in albumin level at 20 mg/kg, sc measured after 24 hrs; format: organism-based; conditions: in vivo
Cell membrane [29] = assay: Induction of membrane disruption in methicillin resistant Staphylococcus aureus 20 assessed as intracellular protein leakage incubated for 4 hrs by microspectrophotometer analysis; format: cell membranes; conditions: dose 2-16 µg/ml
[30] = Toxicity in Kunming mouse assessed as change in urea level at 20 mg/kg, sc measured after 24 hrs; format: organism-based; conditions: in vivo
[31] = Toxicity in Kunming mouse assessed as change in platelet count at 20 mg/kg, sc measured after 24 hrs; format: organism-based; conditions: in vivo
[32] = Selectivity index, ratio of HC50 for sheep RBC to MIC for Staphylococcus aureus ATCC 29213; format: toxicity; conditions: sheep red blood cells, read-out: Selectivity Index
Staphylococcus aureus [33] = assay: Antibacterial activity against methicillin resistant Staphylococcus aureus 20 incubated for 16 to 18 hrs in presence of 2 to 64 ug/ml phosphatidylglycerol by checkerboard broth dilution method; format: functional, organism-based; conditions: time 16-18 hrs
Staphylococcus aureus [34] = assay: Inhibition of transcription in methicillin resistant Staphylococcus aureus N315 at 4 ug/ml incubated for 4 hrs by RNA-sequencing analysis; format: functional, organism-based; conditions: dose 4.0 µg/ml
[35] = Toxicity in Kunming mouse assessed as change in hemoglobin level at 20 mg/kg, sc measured after 24 hrs; format: organism-based; conditions: in vivo
[36] = Toxicity in Kunming mouse assessed as lung abnormalities at 10 mg/kg, sc measured after 24 hrs; format: organism-based; conditions: in vivo
Staphylococcus aureus [37] = assay: Inhibition of DNA replication in methicillin resistant Staphylococcus aureus N315 at 4 ug/ml incubated for 4 hrs by RNA-sequencing analysis; format: functional, organism-based; conditions: dose 4.0 µg/ml
Staphylococcus aureus [38] = assay: Upregulation of cidA gene expression in methicillin resistant Staphylococcus aureus N315 at 4 ug/ml incubated for 4 hrs by RNA-sequencing analysis; format: functional; conditions: dose 4.0 µg/ml
Cell membrane [39] = assay: Induction of membrane disruption in methicillin resistant Staphylococcus aureus 20 assessed as increase in red fluorescence signal incubated for 2 hrs by SYTO9/PI staining based flow cytometry analysis; conditions: dose 8-128 µg/ml
[40] = Toxicity in Kunming mouse assessed as change in mean corpuscular volume at 20 mg/kg, sc measured after 24 hrs; format: organism-based; conditions: in vivo

With `C=CCc1cc(-c2ccc(OCCC[N+](C)(C)CC(=O)NCCCC)c(CC=C)c2)c2oc(-c3c(Cl)cccc3Cl)nc2c1.[Br-]` the Activity (Staphylococcus aureus [1]) was “Active”, the MIC (Staphylococcus aureus [2]) was 8 µg/mL and the MIC (Staphylococcus aureus [3]) was 32 µg/mL. The Activity (Cell membrane [4]) was 61.6%, the Activity [5] was “Toxic” and the inhibition (Staphylococcus aureus [6]) was “Active”. For the same compound, the viability at 24 h, 16 ug/ml [7] was 75%, the inhibition (Staphylococcus aureus [8]) was “Active” and the Activity (Cell membrane [9]) was “Dose-Dependent Effect”. The Activity (Staphylococcus aureus [10]) was “Active”, the Activity (Staphylococcus aureus [11]) was “Active” and the Activity (Staphylococcus aureus [12]) was “Active”. For the same compound, the Activity (Cell membrane [13]) was “Active”, the MIC (Staphylococcus aureus [14]) was 4 µg/mL and the Activity [15] was “Non-Toxic”. For the same compound, the Activity (Staphylococcus aureus [16]) was “Active”, the Activity (Cell membrane [17]) was 0.33% and the Activity (L02) was “Dose-Dependent Effect”. The Activity (Cell membrane [18]) was “Active”, the MIC (Staphylococcus aureus [19]) was 2 µg/mL and the MIC (Staphylococcus aureus [20]) was 2 µg/mL. The HC50 at 1 h [21] was 218 µg/mL, the Activity [22] was “Non-Toxic” and the Activity (Staphylococcus aureus [23]) was 96.63%. The MIC (Staphylococcus aureus [24]) was 2 µg/mL, the Activity [25] was “Non-Toxic” and the Activity (Cell membrane [26]) was “Dose-Dependent Effect”. For the same compound, the Activity (Staphylococcus aureus [27]) was “Active”, the Activity [28] was “Non-Toxic” and the Activity (Cell membrane [29]) was “Dose-Dependent Effect”. The Activity [30] was “Non-Toxic”, the Activity [31] was “Non-Toxic” and the selectivity ratio [32] was 54.5. For the same compound, the Activity (Staphylococcus aureus [33]) was “inactive”, the inhibition (Staphylococcus aureus [34]) was “Active” and the Activity [35] was “Non-Toxic”. The Activity [36] was “Non-Toxic”, the inhibition (Staphylococcus aureus [37]) was “Active” and the Activity (Staphylococcus aureus [38]) was “Active”. For the same compound, the Activity (Cell membrane [39]) was “Dose-Dependent Effect” and the Activity [40] was “Non-Toxic”.
